{"source": "patent US9719057B2", "about": "“Laundry detergent” (Liquid Vanity ApS, priority 2010, dated 2017)", "key": {"[1]": {"test_system": "Escherichia coli, ATCC 11229", "experiment": "Biocidal effect, dosage response and synergy (reduction in CFU after exposure to biocide)", "format": "cell-based", "settings": "9 minutes at 30° C.; for Reduction obtained in E. coli: pH 6-6.5, factor of reduction in CFU", "excerpt": "(§1) The assay is based on the requirements to chemical disinfectants and antiseptic agent with regard to a reduction in fungus and bacteria of 4 and 5 log units respectively. These requirements are stated in DS/EN 1276:1997 and DS/EN 1275:2005, respectively.\n(§2) The following microorganisms were chosen for this dosage response assays: Staphylococcus aureus, ATCC 6538, representing grampositive bacteria; Escherichia coli, ATCC 11229, representing gramnegative bacteria; and Candida albicans, ATCC 2091, representing yeast fungi.\n(§3) The bacterial cultures were cultivated in the growth medium TSB (Tryptic Soy Bouillon) for 24 h at 37° C. before use. Colony forming units (CFU) were determined by plating Tryptic Soy Agar (TSA).\n(§4) The exposure to biocide was performed at pH 6-6.5, which was obtained by addition of 100 mM potassium phosphate buffer. To test tubes with 8 mL sterile 100 mM phosphate buffer were added 1 mL test solution (i.e. biocide solution) and 1 mL stock culture. After thorough mixing the assay mixtures were exposed to heating in water bath at 30° C. for 9 minutes. After exposure the test tubes were immediately removed from the water bath and the surviving microorganisms were determined by plating.\n(§5) Reference samples were prepared by adding 1 mL sterile water instead of 1 mL test solution.\n(§6) From appropriate dilutions of starting material (mixture of biocide solution, stock culture and buffer) was taken 0.1 mL onto agar plates, and the material was spread with Drigalski spatulas. The plates were incubated at 37° C. 1 day for bacteria and 2 days for yeast.\n(§7) For determining CFU of the bacteria after exposure, with and without biocide, was used incubation on TSA for 24 h at 37° C. For determining CFU of Candida albicans before and after exposure was used incubation on MEA for 48 h at 37° C.\n(§8) Where a large reduction in organisms was expected (test concentrations of 700 and 200 ppm) 1 mL and 0.1 mL solution, respectively, were mixed with 100 ml sterile water and filtered through a 47 mm Millipore EZ-Pak® membrane filter, mesh 0.22 μm. The filter was rinsed with 100 mL sterile water, and thereafter placed directly on the agar plate. The mixing in water and subsequent rinsing ensures that the biocide is heavily diluted and thus will not have any effect after plating. For dilutions of 100× and more, regular plating were used, as the biocide at these concentrations is considered to not provide any further reduction in the microorganisms during plating on agar.\n(§9) Plates with between 20 and 500 CFU were chosen for counting. Number of CFU (colony forming units) per g or mL sample was calculated by multiplying the number of colonies per plate with the dilution and further by 10, as only 0.1 mL was used on each plate.\n(§10) After incubation, CFU was determined and reduction in organisms was calculated. All tests were performed in triplicate.\n(§11) The optimal biocides, Bardap-26 and Akacid Forte, found in Example 4A, were further assayed for synergistically effect. Bardap-26 and Akacid Forte was mixed in a 50:50 ratio, and the applied concentrations can be seen from Table 5. The methods and solutions were otherwise as described in example 4A herein."}, "[2]": {"test_system": "Staphylococcus aureus, ATCC 6538", "experiment": "Biocidal effect, dosage response and synergy (reduction in CFU after exposure to biocide)", "format": "cell-based", "settings": "9 minutes at 30° C.; for Reduction obtained in Staphylococcus Aureus: pH 6-6.5, factor of reduction in CFU", "excerpt": "as §1, §2, §3, §4, §5, §6, §7, §8, §9, §10, §11"}, "[3]": {"test_system": "Candida albicans, ATCC 2091", "experiment": "Biocidal effect, dosage response and synergy (reduction in CFU after exposure to biocide)", "format": "cell-based", "settings": "9 minutes at 30° C.; for Reduction obtained in Candida Albicans: pH 6-6.5, factor of reduction in CFU", "excerpt": "as §1, §2\nCandida albicans was cultivated on malt extract agar (MEA) for 24 h at 37° C. before use. Then the yeast cells were harvested in 0.9% saline by use of a drigalski spatula. CFU were determined by plating on MEA.\nas §4, §5, §6, §7, §8, §9, §10, §11"}, "[4]": {"experiment": "Critical micelle concentration by Sudan Black B absorbance at 600 nm", "format": "physicochemical", "settings": "data not shown", "protocol": "The critical micelle concentration is measured using Sudan Black B dissolved in the test solutions at different concentrations. Sudan Black B is dissolvable in micelles, only. A difference in the absorbance measured is thus a valid measure of the critical micelle concentration in the test solutions. Absorbance was measured using a Shimadzu UV-1800 spectrofotometer and the absorbance is measured at 600 nm. Dilutions were made in water and Sudan Black B by adding first water, then Sudan Black B and at last the test solutions to 4 ml cuvettes. The dilutions were then stirred and left for at least 6 hours at room temperature. Then the absorbance was measured."}, "[5]": {"settings": "120 ppm active (total for mixtures)"}, "[6]": {"settings": "test concentrations 40-700 ppm active"}}}
{"substance": "N,N-didecyl-N-methyl-poly(oxyethyl) ammonium propionate [Bardap-26]", "values": [{"measurement": "Reduction obtained in E. coli", "setting": "[1]; 40 ppm active", "value": "~10^4"}, {"measurement": "Reduction obtained in E. coli", "setting": "[1]; 80 ppm active", "value": "~10^4"}, {"measurement": "Reduction obtained in E. coli", "setting": "[1]; [5]", "value": "10^4-10^5"}, {"measurement": "Reduction obtained in E. coli", "setting": "[1]; 160 ppm active", "value": ">10^7"}, {"measurement": "Reduction obtained in E. coli", "setting": "[1]; 200 ppm active", "value": ">10^7"}, {"measurement": "Reduction obtained in E. coli", "setting": "[1]; 700 ppm active", "value": ">10^7"}, {"measurement": "Effect on E. coli as summarised in words", "setting": "[1]; [6]", "value": "good effect"}, {"measurement": "Reduction obtained in Staphylococcus Aureus", "setting": "[2]; 40 ppm active", "value": "~10^2"}, {"measurement": "Reduction obtained in Staphylococcus Aureus", "setting": "[2]; 80 ppm active", "value": "10^2-10^3"}, {"measurement": "Reduction obtained in Staphylococcus Aureus", "setting": "[2]; [5]", "value": "10^2-10^3"}, {"measurement": "Reduction obtained in Staphylococcus Aureus", "setting": "[2]; 160 ppm active", "value": ">10^7"}, {"measurement": "Reduction obtained in Staphylococcus Aureus", "setting": "[2]; 200 ppm active", "value": ">10^7"}, {"measurement": "Reduction obtained in Staphylococcus Aureus", "setting": "[2]; 700 ppm active", "value": ">10^7"}, {"measurement": "Effect on Staphylococcus Aureus as summarised in words", "setting": "[2]; [6]", "value": "good effect"}, {"measurement": "Reduction obtained in Candida Albicans", "setting": "[3]; 40 ppm active", "value": "No reduction"}, {"measurement": "Reduction obtained in Candida Albicans", "setting": "[3]; 80 ppm active", "value": "10^2-10^3"}, {"measurement": "Reduction obtained in Candida Albicans", "setting": "[3]; [5]", "value": "~10^3"}, {"measurement": "Reduction obtained in Candida Albicans", "setting": "[3]; 160 ppm active", "value": "~10^4"}, {"measurement": "Reduction obtained in Candida Albicans", "setting": "[3]; 200 ppm active", "value": "~10^4"}, {"measurement": "Reduction obtained in Candida Albicans", "setting": "[3]; 700 ppm active", "value": "10^4-10^5"}, {"measurement": "Reduction of Candida Albicans", "setting": "[3]; concentration not given", "value": "10^4"}, {"measurement": "Effect on Candida Albicans as summarised in words", "setting": "[3]; [6]", "value": "good effect"}, {"measurement": "CMC", "setting": "[4]", "value": "0.7 to 1.0", "unit": "mmol/L"}]}
